Two compounds from patent publication US12544450B2, “Medical uses of thiol-functionalized polyglycerol derivatives” (FREIE UNIVERSITÄT BERLIN, priority 2019, dated 2026) can be followed below.

Each structure is given as a SMILES string. “Also recorded” adds a separate entry of the source.

For the test, the system named is lung mucus collected from patients with cystic fibrosis. Description: Macrorheology of cystic fibrosis lung mucus after treatment with reducing agents. Details: species or system human. The note with it: 30 min at 37° C.; for Viscosity of CF mucus after treatment: frequency sweep at 2% strain, FIG. 8. On the procedure: In order to determine the mucolytic potential of thiol-functionalized polyglycerol derivatives the rheological properties of lung mucus, which was collected from patients with cystic fibrosis, were determined before and after treatment with different reducing or control agents. In addition, mucus from a healthy donor was used as control. Rheological measurements can be generally used to determine both elastic and viscous material components. Clinical samples were obtained freshly from cystic fibrosis (CF) patients at Charité Berlin and put directly on ice after collection. Then, the samples were mixed with a protease inhibitor cocktail (Roche) and aliquoted in 150 μl portions. The samples were then treated with different concentrations of freshly prepared reducing agents for 30 min at 37° C. Control samples were kept on ice throughout the incubation time or treated with phosphate-buffered saline (PBS) and incubated for 30 min at 37° C. After the incubation time all samples were kept on ice until use for the macrorheological studies. Here, a Kinexus instrument (Malvern) with a cone-and-plate setup was used. The cone geometry was 20 mm diameter and a […] angle. Each sample was run with an amplitude sweep mode at an oscillatory frequency of 1 Hz to determine the linear viscoelastic regime. In order to obtain viscosity parameters, measurements were repeated at 2% stain in a frequency sweep mode.

Regarding `O[C@H](CS)[C@H](O)CS` (racemic) [DTT, Dithiothreitol], the “Viscosity of CF mucus after treatment” value was “reduces the viscosity of CF mucus to level significantly below the viscosity level of mucus from healthy individuals; also recorded: completely destroys the viscosity properties of mucus”. Take `CC(=O)N[C@@H](CS)C(=O)O` [NAC, N-acetylcysteine]: the “Viscosity of CF mucus after treatment” value was “does not show any enhanced mucolytic activity than PBS”. In addition, the “Elastic modulus (G') of CF mucus after treatment” value (amplitude sweep at 1 Hz, FIG. 7) was “comparably slight reduction of the elastic modulus like a treatment with physiological phosphate buffer (PBS)”.
